We go through three molecules from publication PMC4336331, “Novel Receptor-Derived Cyclopeptides to Treat Heart Failure Caused by Anti-β1-Adrenoceptor Antibodies in a Human-Analogous Rat Model” (PLoS ONE, 2015).

Common to all, as to type: in vivo, Lewis/CrlBR rats
In data set [1] the test system is anti-β1EC2-secreting cells. The experiment in a line: ELISPOT of splenocytes and bone marrow cells. The protocol:
(b) For ELISPOT assays plates were coated overnight with either 1.8 μg/ml anti-rat IgG (H+L) or the specific antigens (GST/β1EC2-FP or GST alone) in 50 mM Tris-buffer, pH 9.4. The plates were then washed 3 times, blocked with BSA (3h, 37°C), and incubated overnight at 37°C with splenocytes or bone marrow cells from rats treated as indicated in RPMI 1640/X-VIVO-15 medium supplemented with 10% FCS (1x10^3 to 10^6 cells per well). After 12 h the cells were discarded and the plates were washed several times (PBS/0.5% Tween) before an alkaline phosphatase-conjugated secondary anti-rat-IgG antibody (0.3 μg/ml) was added to detect bound rat IgG. After further incubation (3h, 37°C) and washing-steps (3 times PBS/0.5% Tween) the plates were developed using LMP/BCIP 5:1 (1.0 ml per well; LMP, low melting agarose; BCIP, 5-bromo-4-chloro-3-indolyl phosphate p-toluidine salt, a blue-colored dye).
Fig 5 Immunology of cyclic β1EC2-peptides: fate of β1EC2-specific T- and B-cells. (A) Titer-course of anti-β1EC2-abs in β1EC2-CP-treated rats during the first 6 months of the prevention-study before and 24h after cyclopeptide-injection. Time-points of antigen-boosts are indicated by (red) lines, time-points of CP-injections by (green) arrows. For better readability error-bars are not shown in the graph. (B) Pre-experiments (antigenic recall-assays) performed with CD4^+ T-cells prepared from spleens of GST/β1EC2 fusion-protein (FP)-immunised untreated (n = 3, black) vs. 0.9%NaCl-injected control rats (n = 3, white). (C and D) Reactivities of CD4^+ T-cells prepared from (C) preventively or (D) therapeutically β1EC2-CP- (green) or bisoprolol-treated animals (blue) compared to cells prepared from immunised untreated (black) or corresponding 0.9%NaCl-injected control rats (white). Columns ± error bars represent mean T-cell reactivities ±SEM normalized to medium (abbreviations: EC2-CP, cyclopeptide mimicking β1EC2; GST, glutathion-S-transferase; PPD, purified protein derivative; FP, GST/β1EC2 fusion-protein). […]

Data set [2] deals with β1-AR mRNA. The experiment in a line: qRT-PCR of cardiac β1-AR mRNA, therapy-study. The following applies: qRT-PCR normalised to GAPDH (Fig. 4C).
Experimental: Total RNA was isolated from frozen myocardium by RNeasy mini Kit (Qiagen, Hilden, Germany). Reverse transcription of total RNA isolated from frozen myocardium was performed in 96-well plates utilising a high capacity RNA-to-cDNA master mix (Applied Biosystems, Foster City, CA). PCR reactions were conducted in the presence of the fluorescent dye Sybr-Green (Cambrex BioScience, East Rutherford, NY) and the reference-dye 6-carboxy-X-rhodamine (ROX) using an ABI PRISM sequence detection system 7700 (Applied Biosystems). All amplification products were controlled for specificity by running a melting curve analysis; results were calculated using the 2^-ΔΔCT method. The relative expression levels were derived from a standard curve and normalised to GAPDH as an endogenous control. Quantitative real-time PCR (qRT-PCR) analyses are presented as fold change compared to untreated (0.9% NaCl-injected) control hearts.
(C) Molecular analysis of hearts (apical segments) from treated anti-β1EC2-positive rats and corresponding control animals in the therapy-study.
In data set [3] the test system is anti-β1EC2-induced heart failure (β1EC2/GST-FP-immunised rats). The experiment in a line: Left heart catheterisation (haemodynamics), prevention-study. The following applies: LV catheterisation month 16, mean ±SEM. The procedure: In brief, n = 76 two months old Lewis/CrlBR rats were either s.c. immunised with 50 μg β1EC2/GST-FP, or n = 38 rats were control-injected with 0.9% NaCl (t = 0). To maintain high anti-β1EC2-titers, all immunised rats were boosted with β1EC2/GST-FP (or 0.9% NaCl) every month over 20 months as previously described. Application of the different linear or cyclic β1-AR peptides (corresponding to the primary AA-sequence of either the first (β1EC1) or the 2nd extra-cellular β1-AR loop (β1EC2)) or the β1-receptor blocker bisoprolol was initiated either 6 weeks after the 1st immunisation (i.e. 15 days after the 1st boost, prevention-study), or 8.5 months after the 1st immunisation (therapy-study).

The mark [4] stands for this setting: immunised anti-β1EC2-positive rats, from 6 weeks after 1st immunisation EC2-CP 1.0 mg/kg i.v. every 4 weeks or bisoprolol 15 mg/kg/day orally over 12 months.
[5] abbreviates: non-immunised 0.9% NaCl-injected rats, EC2-CP 1.0 mg/kg i.v. every 4 weeks or bisoprolol 15 mg/kg/day orally over 12 months.

Peptide text beside a SMILES is read from it.

On to `CC(C)[C@@H]1NC(=O)[C@H](Cc2ccccc2)NC(=O)[C@H](CC(=O)O)NC(=O)[C@H](CS)NC(=O)[C@H](CS)NC(=O)[C@H](CCCCN)NC(=O)[C@@H]2CCCN2C(=O)[C@H](CC(=O)O)NC(=O)[C@H](CC(N)=O)NC(=O)[C@H](Cc2ccc(O)cc2)NC(=O)[C@H](CS)NC(=O)[C@H](CCCNC(=N)N)NC(=O)[C@H](CCCNC(=N)N)NC(=O)[C@H](C)NC(=O)[C@H](CCC(=O)O)NC(=O)[C@H](CC(=O)O)NC(=O)[C@H](CO)NC(=O)[C@H](CCC(=O)O)NC(=O)[C@H](C)NC(=O)[C@H](CCCNC(=N)N)NC(=O)[C@H](C)NC(=O)[C@H](CCC(N)=O)NC(=O)CNC(=O)[C@H](CCCNC(=N)N)NC(=O)[C@H](CC(N)=O)NC(=O)[C@H]([C@@H](C)O)NC1=O` [β1EC2-CP] (cyclo(AESDEARRCYNDPKCCDFVTNRGQAR)), for which the “overall numbers of IgG-producing cells, in words” value in data set [1] (ELISPOT (Fig. 5F, H, and J)) is reported as “not at all affected”. Further, the “frequencies of anti-β1EC2-producing (long-lived) PC, in words” value in data set [1] (ELISPOT, splenocytes or bone marrow cells two weeks after the last antigen-boost (Fig. 5E and F)) is on record as “did not reduce”. Besides, the “cardiac β1-AR mRNA-levels, in words” value in data set [2] was “returned to normal levels”. In data set [3] (setting [4]), the “-dP/dt (relaxation)” value worked out at 5887 ±93 mmHg/s, the “HF (heart frequence)” value came out at 226 ±5 bpm, the “LVEDP (LV end-diastolic pressure)” value amounted to 10.4 ±0.6 mmHg and the “LVSP (maximal systolic LV-pressure)” value was found to be 127 ±4 mmHg. Further, in data set [3] (setting [5]), the “-dP/dt (relaxation)” value turned out to be 5986 ±288 mmHg/s, the “HF (heart frequence)” value came to 232 ±7 bpm, the “LVEDP (LV end-diastolic pressure)” value is 10.1 ±1.4 mmHg and the “LVSP (maximal systolic LV-pressure)” value came to 135 ±7 mmHg.

`CC(C)NCC(O)COc1ccc(COCCOC(C)C)cc1` (centres unmarked) [bisoprolol, reference compound]: in data set [2], the “cardiac β1-AR mRNA-levels, in words” value was “returned to normal levels”. Also, in data set [3] (setting [4]), the “+dP/dt (contractilility)” value turned out to be 6768 ±106 mmHg/s, the “-dP/dt (relaxation)” value is 5532 ±78 mmHg/s, the “HF (heart frequence)” value is 178 ±9 bpm and the “LVEDP (LV end-diastolic pressure)” value came to 8.3 ±0.6 mmHg. Further, the “LVSP (maximal systolic LV-pressure)” value in data set [3] (setting [4]) is listed as 106 ±3 mmHg. Further, in data set [3] (setting [5]), the “+dP/dt (contractilility)” value came to 7012 ±419 mmHg/s, the “-dP/dt (relaxation)” value was found to be 5619 ±155 mmHg/s, the “HF (heart frequence)” value was determined as 173 ±17 bpm and the “LVEDP (LV end-diastolic pressure)” value is 10.6 ±1.5 mmHg. In data set [3] (setting [5]), the “LVSP (maximal systolic LV-pressure)” value is 107 ±11 mmHg.

With `CC(C)[C@H](NC(=O)[C@H](Cc1ccccc1)NC(=O)[C@H](CC(=O)O)NC(=O)[C@H](CS)NC(=O)[C@H](CS)NC(=O)[C@H](CCCCN)NC(=O)[C@@H]1CCCN1C(=O)[C@H](CC(=O)O)NC(=O)[C@H](CC(N)=O)NC(=O)[C@H](Cc1ccc(O)cc1)NC(=O)[C@H](CS)NC(=O)[C@H](CCCNC(=N)N)NC(=O)[C@H](CCCNC(=N)N)NC(=O)[C@H](C)NC(=O)[C@H](CCC(=O)O)NC(=O)[C@H](CC(=O)O)NC(=O)[C@H](CO)NC(=O)[C@H](CCC(=O)O)NC(=O)[C@H](C)NC(=O)[C@H](CCCNC(=N)N)NC(=O)[C@H](C)N)C(=O)N[C@H](C(=O)N[C@@H](CC(N)=O)C(=O)N[C@@H](CCCNC(=N)N)C(=O)NCC(N)=O)[C@@H](C)O` [β1EC2-Lin] (H-ARAESDEARRCYNDPKCCDFVTNRG-NH2; N-terminus and C-terminus assumed), the “reduction in the frequencies of splenocytes secreting anti-β1EC2-abs, in words” value in data set [1] (ELISPOT 3 days after antigen-boost (S5A Fig.)) was “not achieved”.
